Source: ChEMBL document CHEMBL1157422, “Phloroglucinols with antioxidant activity and xanthonolignoids from the heartwood of Hypericum geminiflorum” (J Nat Prod, 2008)
Calls of active or inactive are those of the source. The rule behind the calls is not given here.

Assays:
[1] = test system: Radical scavenging activity; test: Antioxidant activity assessed as DPPH free radical scavenging; format: functional
[2] = test system: Radical scavenging activity; test: Antioxidant activity assessed as DPPH free radical scavenging at 300 uM; format: functional
Escherichia coli = test: Inhibition of oxygen free radical-induced DNA damage of Escherichia coli plasmid DNA pBR322 by agarose gel electrophoresis
[3] = target: Xanthine dehydrogenase/oxidase (Homo sapiens, UniProt P47989); test: Inhibition of xanthine oxidase
Chain of Xanthine dehydrogenase/oxidase (P47989 whole entry): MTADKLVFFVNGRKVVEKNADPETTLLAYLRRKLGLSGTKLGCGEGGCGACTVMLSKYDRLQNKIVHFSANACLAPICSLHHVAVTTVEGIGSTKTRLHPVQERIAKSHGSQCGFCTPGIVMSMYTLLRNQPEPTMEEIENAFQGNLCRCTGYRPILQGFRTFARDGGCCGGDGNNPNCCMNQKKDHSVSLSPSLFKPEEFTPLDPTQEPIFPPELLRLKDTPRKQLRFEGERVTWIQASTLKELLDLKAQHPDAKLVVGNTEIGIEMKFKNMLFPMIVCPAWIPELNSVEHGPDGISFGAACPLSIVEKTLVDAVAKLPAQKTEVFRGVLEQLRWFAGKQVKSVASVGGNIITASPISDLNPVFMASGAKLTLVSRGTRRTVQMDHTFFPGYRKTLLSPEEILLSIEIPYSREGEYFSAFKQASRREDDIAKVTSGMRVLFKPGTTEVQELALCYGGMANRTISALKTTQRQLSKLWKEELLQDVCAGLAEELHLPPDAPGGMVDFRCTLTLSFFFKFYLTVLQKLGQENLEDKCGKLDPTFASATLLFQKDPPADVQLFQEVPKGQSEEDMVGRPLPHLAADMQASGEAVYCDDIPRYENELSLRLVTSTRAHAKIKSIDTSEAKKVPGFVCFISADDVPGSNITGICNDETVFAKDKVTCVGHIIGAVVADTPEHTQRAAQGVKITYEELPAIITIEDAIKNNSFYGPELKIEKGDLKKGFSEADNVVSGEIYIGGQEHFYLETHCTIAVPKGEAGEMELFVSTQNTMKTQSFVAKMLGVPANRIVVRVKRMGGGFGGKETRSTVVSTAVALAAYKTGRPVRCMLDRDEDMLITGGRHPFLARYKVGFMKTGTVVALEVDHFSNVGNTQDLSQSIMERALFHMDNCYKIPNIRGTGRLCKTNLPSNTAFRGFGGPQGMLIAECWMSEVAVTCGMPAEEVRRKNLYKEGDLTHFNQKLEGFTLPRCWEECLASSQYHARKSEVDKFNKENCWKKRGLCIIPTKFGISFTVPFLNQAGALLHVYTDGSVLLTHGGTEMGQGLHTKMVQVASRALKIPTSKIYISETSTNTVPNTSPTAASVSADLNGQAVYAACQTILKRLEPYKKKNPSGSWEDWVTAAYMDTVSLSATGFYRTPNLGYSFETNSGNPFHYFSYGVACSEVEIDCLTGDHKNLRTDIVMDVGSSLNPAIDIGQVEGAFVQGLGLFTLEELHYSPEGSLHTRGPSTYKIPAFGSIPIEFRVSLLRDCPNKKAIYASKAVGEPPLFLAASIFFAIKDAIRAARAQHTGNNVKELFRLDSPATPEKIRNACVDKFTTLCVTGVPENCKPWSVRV

Row | IC50 [1] [µM] | IC50 [3] [µM] | Structure (SMILES) | inhibition [2] [%] | Activity (Escherichia coli)
1 | 18.1 |  | Cc1c(C)c2c(c(C)c1O)CC[C@@](C)(CCCC(C)CCCC(C)CCCC(C)C)O2 (single isomer, unassigned) [ALPHA-TOCOPHEROL] |  | 
2 |  | 42.1 | CCC(C)C(=O)C1=C(O)[C@@](C)(CC=C(C)C)C(=O)[C@@]2(C[C@H]3[C@H](CC[C@@]3(C)O)[C@](C)(O)C2)C1=O (some centres not stated) [HYPERIELLIPTONE HB] | 4.5 | Active
3 |  | 42.1 | CCC(C)C(=O)C1=C(O)[C@]2(C[C@H]3[C@H](CC[C@@]3(C)O)[C@](C)(O)C2)C(=O)[C@](C)(CC=C(C)C)C1=O (some centres not stated) [HYPERIELLIPTONE HB] | 4.5 | Active
